The values below come from US20160237059A1, “HETEROCYCLIC SUBSTITUTED TRIFLUOROMETHYL PYRIMIDINONES AND THEIR USE” (BAYER PHARMA AKTIENGESELLSCHAFT, priority 2013, published 2016).

The IC50 is the concentration that gives 50% inhibition. High values mean lower potency, low ones higher potency.

Holding throughout (format): cell-based
The target of assay [1] is T1, murine CCR2 (Mus musculus, UniProt P51683).
T1 construct: host or cells: U2OS β-arrestin cell line
Nature of the assay: Functional β-arrestin recruiting test with murine MCP-1 (B-2b). The following applies: U2OS β-arrestin cell line transfected with murine CCR2; agonist murine MCP-1; in some cases means of several determinations. In short, it runs like this:
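In a PathHunter β-galactosidase complementation assay, U2OS cells expressing murine CCR2 were preincubated 10 min with compound (10-point, 1:3.16 dilutions), then challenged with murine MCP-1 at its predetermined EC50 for 90 min at 37 °C. Luminescence was read after 60 min, and IC50 was fitted with a 4-parameter Hill function.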
On the technique in general: Activated receptors often draw arrestin, which recruitment assays turn into a signal.

For a further assay, the target named is T2, human CCR2 (Homo sapiens, UniProt P41597).
T2 construct: host or cells: Chem-1 cell line
T2 sequence (P41597 1-360 isoform P41597-2): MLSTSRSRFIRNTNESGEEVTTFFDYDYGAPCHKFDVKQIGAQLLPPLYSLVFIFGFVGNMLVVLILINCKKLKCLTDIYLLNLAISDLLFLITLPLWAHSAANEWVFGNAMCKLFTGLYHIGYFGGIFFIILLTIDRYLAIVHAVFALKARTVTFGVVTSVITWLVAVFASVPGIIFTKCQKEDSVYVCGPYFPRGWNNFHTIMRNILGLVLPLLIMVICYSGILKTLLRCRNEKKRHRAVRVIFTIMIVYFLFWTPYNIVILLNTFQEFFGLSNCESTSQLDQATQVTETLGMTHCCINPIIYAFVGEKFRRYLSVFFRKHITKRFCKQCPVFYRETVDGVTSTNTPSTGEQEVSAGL
Nature of the assay: Functional Ca2+ release test (B-1). The following applies: Chem-1 cell line transfected with human CCR2; 50% inhibition of the MCP-1 effect, MCP-1 at EC50 (about 5 nM); in some cases means of several determinations. In outline:
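Chem-1 cells expressing human CCR2, loaded with Fluo-4 for 60 min at 37° C, were preincubated 10 min with compound (10-point, 1:3.16 dilutions), then stimulated with MCP-1 at its predetermined EC50 (about 5 nM). Ca2+ release was monitored for 120 s. IC50 came from a 4-parameter Hill fit.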

In assay [2] the target is T1, murine CCR2. As to the kind of experiment: Functional β-arrestin recruiting test with human MCP-1 (B-2a). The settings on record: U2OS β-arrestin cell line transfected with murine CCR2; agonist human MCP-1 at EC50 (about 3 nM); in some cases means of several determinations. In short, it runs like this:
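Antagonist mode in U2OS cells expressing murine CCR2, read by PathHunter β-galactosidase complementation luminescence. Cells pre-incubated 10 min with 10-point compound dilutions (1:3.16 steps), then stimulated with human MCP-1 at its EC50 (usually about 3 nM) for 90 min at 37° C.; IC50 from 4-parameter logistic fit.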

SMILES strings stand for the structures.

T1 sequence (P51683 whole entry): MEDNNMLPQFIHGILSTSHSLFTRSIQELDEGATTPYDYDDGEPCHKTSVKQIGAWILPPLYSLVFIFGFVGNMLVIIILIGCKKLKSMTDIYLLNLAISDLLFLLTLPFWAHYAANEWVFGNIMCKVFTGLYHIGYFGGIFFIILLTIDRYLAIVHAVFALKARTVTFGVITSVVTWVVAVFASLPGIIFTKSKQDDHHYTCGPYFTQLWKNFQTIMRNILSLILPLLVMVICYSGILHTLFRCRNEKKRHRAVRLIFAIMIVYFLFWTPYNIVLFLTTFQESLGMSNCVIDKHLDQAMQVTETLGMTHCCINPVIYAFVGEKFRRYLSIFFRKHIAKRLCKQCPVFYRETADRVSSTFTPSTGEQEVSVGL

As for `O=c1[nH]c(-c2cn[nH]c2)nc(C(F)(F)F)c1Oc1ccc(Cl)c(C(F)(F)F)c1` [Example 70, 5-[4-chloro-3-(trifluoromethyl)phenoxy]-2-(1H-pyrazol-4-yl)-6-(trifluoromethyl)pyrimidin-4(3H)-one], the figures for the IC50 on murine CCR2 [1], on human CCR2 and at murine CCR2 [2] were 154 nM, 0.8 nM and 56 nM, respectively.

`O=c1[nH]c(-c2ncccc2F)nc(C(F)(F)F)c1Cc1ccc(Cl)c(Cl)c1` [Example 17, 5-(3,4-dichlorobenzyl)-2-(3-fluoropyridin-2-yl)-6-(trifluoromethyl)pyrimidin-4(3H)-one]: the IC50 stood at 191 nM at murine CCR2 [1], 1.4 nM against human CCR2 and 43 nM at murine CCR2 [2].

Consider `O=c1[nH]c(Cc2ccno2)nc(C(F)(F)F)c1Oc1ccc(Cl)c(Cl)c1` [Example 95, 5-(3,4-dichlorophenoxy)-2-(1,2-oxazol-5-ylmethyl)-6-(trifluoromethyl)pyrimidin-4(3H)-one], for which the IC50 stood at 449 nM on murine CCR2 [1], 27 nM at human CCR2 and 77 nM on murine CCR2 [2].

For the molecule `O=c1[nH]c(-c2ncccc2Cl)nc(C(F)(F)F)c1Oc1ccc(Cl)c(Cl)c1` [Example 5, 2-(3-chloropyridin-2-yl)-5-(3,4-dichlorophenoxy)-6-(trifluoromethyl)pyrimidin-4(3H)-one], the IC50 at murine CCR2 [1] turned out to be 50 nM; on human CCR2, 1 nM; on murine CCR2 [2], 13 nM.

As to `O=c1[nH]c(-c2ncccc2Cl)nc(C(F)(F)F)c1Cc1ccc(Cl)c(C(F)(F)F)c1` [Example 35, 2-(3-chloropyridin-2-yl)-5-[4-chloro-3-(trifluoromethyl)benzyl]-6-(trifluoromethyl)pyrimidin-4(3H)-one], the results for the IC50 at murine CCR2 [1], at human CCR2 and at murine CCR2 [2] were 160 nM, 1.5 nM and 35 nM, respectively.

`O=c1[nH]c(-c2n[nH]cc2Cl)nc(C(F)(F)F)c1Cc1ccc(Cl)c(Cl)c1` [Example 75, 2-(4-chloro-1H-pyrazol-3-yl)-5-(3,4-dichlorobenzyl)-6-(trifluoromethyl)pyrimidin-4(3H)-one]: the IC50 on murine CCR2 [1] turned out to be 102 nM; on human CCR2, 1.3 nM; on murine CCR2 [2], 29 nM.

Turning to `COc1cccnc1-c1nc(C(F)(F)F)c(Oc2ccc(Cl)c(C(F)(F)F)c2)c(=O)[nH]1` [Example 40, 5-[4-chloro-3-(trifluoromethyl)phenoxy]-2-(3-methoxypyridin-2-yl)-6-(trifluoromethyl)pyrimidin-4(3H)-one], the IC50 on murine CCR2 [1] stood at 44 nM; at human CCR2, 0.8 nM; at murine CCR2 [2], 12 nM.

As to `O=c1[nH]c(-c2ncon2)nc(C(F)(F)F)c1Oc1ccc(Cl)c(Cl)c1` [compound 79, 5-(3,4-Dichlorophenoxy)-2-(1,2,4-oxadiazol-3-yl)-6-(trifluoromethyl)pyrimidin-4(3H)-one], the IC50 is 195 nM at murine CCR2 [1], 4.2 nM on human CCR2 and 53 nM on murine CCR2 [2].
